Test results published in ChEMBL document CHEMBL1201862, “PubChem BioAssay data set” (2004).
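Results reflect a 48-hour exposure of cells in 96-well plates to compound at five concentrations. The concentration for 50% growth inhibition is given as GI50.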 Calls of active or inactive are those of the source. Cut-off read from the data, not from the text of the source: active = GI50 up to about 1.1 µM and inactive = higher.

Assays:
Assay in all cases: NCI anticancer screen, dose series, 48 h
[1] = test system: LXFL 529
[2] = test system: KM-20L2
[3] = test system: TK-10
[4] = test system: NCI-H226
[5] = test system: UACC-257
[6] = test system: RPMI-8226
[7] = test system: HCT-15
[8] = test system: SF-539
[9] = test system: DMS-114
[10] = test system: KM12
[11] = test system: SK-MEL-28
[12] = test system: CAKI-1
[13] = test system: UACC-62
[14] = test system: HT-29
[15] = test system: SK-MEL-5
[16] = test system: SNB-19
[17] = test system: RXF 393
[18] = test system: SNB-75

Measured: GI50

COc1cc(C=C2C(=O)OC(C)(C)OC2=O)cc(OC)c1OC
> 100 µM: [7]
inactive: [1] > 100 µM | [2] > 100 µM | [3] > 100 µM | [4] > 100 µM | [5] > 100 µM | [6] > 100 µM | [8] > 100 µM | [9] > 100 µM | [10] > 100 µM | [11] > 100 µM | [12] > 100 µM | [13] > 100 µM | [14] > 100 µM | [15] > 100 µM | [16] > 100 µM | [17] > 100 µM

CN(C)CCC(O)(c1ccccc1)C(O)(CCN(C)C)c1ccccc1 (centres undefined)
inactive: [1] > 100 µM | [2] 67 µM | [3] > 100 µM | [5] 22.3 µM | [18] 33.1 µM | [6] > 100 µM | [9] > 100 µM | [10] > 100 µM | [11] > 100 µM | [12] > 100 µM | [13] > 100 µM | [14] 94 µM | [15] 38.5 µM | [16] > 100 µM
> 100 µM: [7]

NCCCOc1ccc([N+](=O)[O-])cc1Cl
> 100 µM: [7]
inactive: [1] 67.3 µM | [2] > 100 µM | [3] > 100 µM | [4] > 100 µM | [5] > 100 µM | [18] 61.1 µM | [6] 51.8 µM | [8] > 100 µM | [9] > 100 µM | [10] > 100 µM | [11] > 100 µM | [12] 28.1 µM | [13] > 100 µM | [14] > 100 µM | [15] > 100 µM | [16] > 100 µM

CCC(=O)CC(=O)CCC(=O)Nc1cc(C)ccc1C
inactive: [1] > 100 µM | [2] > 100 µM | [3] > 100 µM | [18] > 100 µM | [6] > 100 µM | [8] > 100 µM | [10] > 100 µM | [11] > 100 µM | [13] > 100 µM | [14] > 100 µM | [15] > 100 µM | [16] > 100 µM | [17] > 100 µM
> 100 µM: [7]

O=C(O)C(CO)NC(=O)n1c2ccccc2c2ccccc21 (centres undefined)
> 100 µM: [7]
inactive: [1] > 100 µM | [3] > 100 µM | [4] > 100 µM | [5] > 100 µM | [6] > 100 µM | [8] > 100 µM | [9] > 100 µM | [10] > 100 µM | [11] > 100 µM | [12] > 100 µM | [13] > 100 µM | [14] > 100 µM | [15] > 100 µM | [16] > 100 µM | [17] > 100 µM

COc1cc2c(cc1OCc1ccccc1)CNCC2
> 100 µM: [7]
inactive: [1] > 100 µM | [2] > 100 µM | [3] > 100 µM | [4] > 100 µM | [5] > 100 µM | [18] > 100 µM | [8] > 100 µM | [9] > 100 µM | [10] > 100 µM | [11] > 100 µM | [12] > 100 µM | [13] > 100 µM | [14] > 100 µM | [15] > 100 µM | [16] > 100 µM | [17] > 100 µM

NC(=S)N1N=C2CCCCCC[C@@H]2[C@H]1c1ccccc1
28.4 µM: [7]
inactive: [1] 40 µM | [2] 62.1 µM | [3] 63 µM | [4] 18.6 µM | [5] 36.6 µM | [18] 75.2 µM | [6] 15.1 µM | [8] > 100 µM | [9] 27.1 µM | [10] 35.2 µM | [11] 89.7 µM | [12] > 100 µM | [13] 44.1 µM | [14] 29.2 µM | [15] 22.4 µM | [16] 63.1 µM | [17] 95.9 µM

Cc1cc(Cl)ccc1NC(=O)C1C(=O)N(c2ccc(Cl)cc2C)C(=O)/C1=N\NC(N)=S (centres undefined)
inactive: [1] 28.7 µM | [2] 20.7 µM | [3] 47.9 µM | [5] 59 µM | [6] 44.8 µM | [8] 26.1 µM | [9] 31.6 µM | [10] 32.9 µM | [11] > 10 µM | [13] 31.6 µM | [14] 18.7 µM | [15] 32.7 µM | [16] 37.3 µM | [17] 16 µM
17.1 µM: [7]

CCCCN(CCCC)C(=O)C(=O)C(C)C(=O)CC (centres undefined)
> 100 µM: [7]
inactive: [1] > 100 µM | [2] > 100 µM | [3] > 100 µM | [4] > 100 µM | [5] > 100 µM | [18] > 100 µM | [6] > 100 µM | [8] > 100 µM | [10] > 100 µM | [11] > 100 µM | [12] > 100 µM | [13] > 100 µM | [14] > 100 µM | [16] > 100 µM
